Experimental data: the supplement of paper PMC8372320

Assay: photocatalytic hydrogen evolution rate (per 5 mg catalyst); higher = more photocatalytic H2 evolution; extreme values may be limits of the assay
Conditions: catalyst mass (mg): 5; Pt cocatalyst (wt%): 3; sacrificial medium: triethylamine/methanol/water 1:1:1
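Note: aromatic molecules in triethylamine/methanol/water with Pt photoreduced in situ, irradiated 3 h under a 1 sun AM 1.5G solar simulator (350–1000 nm), H2 quantified by headspace gas chromatography; listed molecule itself used as the photocatalyst at 5 mg per vial.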

Row | photocatalytic hydrogen evolution rate | Structure (SMILES)
1 | 0 µmol/h | Brc1cc(Br)c(Br)cc1Br
2 | 0.0301 µmol/h | N#Cc1cccc(-c2cccc(C#N)n2)n1
3 | 0 µmol/h | C#Cc1ccc(Br)cc1
4 | 0 µmol/h | Cc1[nH]c(C)c(C=O)c1C=O
5 | 0 µmol/h | C#Cc1cnc[nH]1
6 | 0 µmol/h | O=Cc1cc(O)c(C=O)cc1O
7 | 0.0122 µmol/h | O=Cc1cccc(-c2c(O)ccc3ccccc23)c1
8 | 0 µmol/h | N#Cc1ccc(CCc2ccc(C#N)cc2)cc1
9 | 3.58 µmol/h | O=Cc1ccc(-c2cccnc2)cc1
10 | 0 µmol/h | Brc1cccc2cc3cccc(Br)c3cc12
11 | 0 µmol/h | N#Cc1cc(N)ccc1Cl
12 | 0.0941 µmol/h | O=C1OC(=O)c2ccc3c4c(ccc1c24)C(=O)OC3=O
13 | 0 µmol/h | O=C(O)c1ccc(C#Cc2cc(C#Cc3ccc(C(=O)O)cc3)cc(C#Cc3ccc(C(=O)O)cc3)c2)cc1
14 | 0 µmol/h | Oc1cc(Br)c(O)cc1Br
15 | 2.49 µmol/h | Cn1c2ccccc2c2cc(C=O)ccc21
16 | 0.0142 µmol/h | CC1(C)c2cc(B3OC(C)(C)C(C)(C)O3)ccc2-c2ccc(B3OC(C)(C)C(C)(C)O3)cc21
17 | 0 µmol/h | O=C(O)Cc1ccc(Br)cc1Br
18 | 0.84 µmol/h | c1csc(-c2ccc(-c3cccs3)c3nsnc23)c1
19 | 0 µmol/h | O=C1c2c(O)cccc2Cc2cccc(O)c21
20 | 5.52 µmol/h | CC(=O)c1ccc(C(C)=O)cc1
21 | 0.0582 µmol/h | N#Cc1cc(F)c(F)cc1F
22 | 0 µmol/h | O=c1[nH]cc[nH]1
23 | 24.5 µmol/h | O=C1NC(=O)c2cccc3cccc1c23
24 | 0 µmol/h | O=C1C(=O)c2cccnc2-c2ncccc21
25 | 0.655 µmol/h | Brc1cnc2c(ccc3cc(Br)cnc32)c1

Row | photocatalytic hydrogen evolution rate | Structure (SMILES)
26 | 0.34 µmol/h | CN(C)c1ccc(C=O)cc1
27 | 0 µmol/h | COC(=O)/C=C/c1ccccc1
28 | 0.331 µmol/h | Cc1cc(C)c(Nc2ccc(Nc3c(C)cc(C)cc3C)c3c2C(=O)c2ccccc2C3=O)c(C)c1
29 | 0 µmol/h | OB(O)c1ccc(-c2ccc(B(O)O)cc2)cc1
30 | 0.245 µmol/h | Cc1cccc(N(c2ccc(C=O)cc2)c2cccc(C)c2)c1
31 | 0.369 µmol/h | Brc1ccc2ccc3cccc4ccc1c2c34
32 | 0 µmol/h | CC(=O)c1c(O)cccc1O
33 | 0.0455 µmol/h | Fc1c(F)c(F)c(B(c2c(F)c(F)c(F)c(F)c2F)c2c(F)c(F)c(F)c(F)c2F)c(F)c1F
34 | 0 µmol/h | Brc1ccc2ccccc2c1-c1c(Br)ccc2ccccc12
35 | 0 µmol/h | O=Cc1cccc(C=O)n1
36 | 0 µmol/h | Fc1ccc(-c2nc(-c3ccccc3)nc(-c3ccccc3)n2)cc1
37 | 0.721 µmol/h | N#Cc1cnc(Br)cn1
38 | 0 µmol/h | COc1cc(C=O)cc(OC)c1O
39 | 0 µmol/h | c1ccc(N(c2ccccc2)c2ccccc2)cc1
40 | 0.0348 µmol/h | COc1cc(Br)cc(OC)c1
41 | 0.0457 µmol/h | c1ccc(-c2cc(-c3ccccc3)cc(-c3ccccc3)c2)cc1
42 | 0.844 µmol/h | Cc1c(C)c(C)c(C=O)c(C)c1C
43 | 0.0172 µmol/h | Cc1cc(C=O)ccc1O
44 | 0 µmol/h | Nc1ccc(N)c(S(=O)(=O)O)c1
45 | 0 µmol/h | N#Cc1ccc(-c2ccc(C#N)cn2)nc1
46 | 0.0145 µmol/h | O=Cc1ccc(C=O)cc1
47 | 0 µmol/h | O=C1C(Br)=C(Br)C(=O)C(Br)=C1Br
48 | 0 µmol/h | O=c1oc(=O)c2cc3c(=O)oc(=O)c3cc12
49 | 0 µmol/h | Nc1cccc(N)c1
50 | 1.45 µmol/h | O=Cc1cccc2cccnc12

Row | photocatalytic hydrogen evolution rate | Structure (SMILES)
51 | 0 µmol/h | C#Cc1ccccc1C#N
52 | 0.129 µmol/h | O=Cc1ccc(C=O)s1
53 | 0.407 µmol/h | O=C1c2ccccc2-c2ccc3c4ccc5c6c(ccc(c7ccc1c2c73)c64)C(=O)c1ccccc1-5
54 | 0 µmol/h | Cc1cc(Br)c(C)cc1Br
55 | 0 µmol/h | N#Cc1ccc(F)cc1
56 | 0 µmol/h | CC1(C)OB(c2ccc(B3OC(C)(C)C(C)(C)O3)c3nsnc23)OC1(C)C
57 | 0 µmol/h | c1ccc(C(c2ccccc2)(c2ccccc2)c2ccccc2)cc1
58 | 2.56 µmol/h | O=C(O)c1ccc(-c2c3nc(c(-c4ccc(C(=O)O)cc4)c4ccc([nH]4)c(-c4ccc(C(=O)O)cc4)c4nc(c(-c5ccc(C(=O)O)cc5)c5ccc2[nH]5)C=C4)C=C3)cc1
59 | 1.25 µmol/h | c1cc2cccc3c4cccc5cccc(c(c1)c23)c54
60 | 0 µmol/h | CC1(C)OB(c2c3ccccc3c(B3OC(C)(C)C(C)(C)O3)c3ccccc23)OC1(C)C
61 | 0 µmol/h | N#CC(C#N)=c1ccc(=C(C#N)C#N)cc1
62 | 0 µmol/h | N#Cc1cccc(F)c1F
63 | 0 µmol/h | O=C(c1ccc(O)cc1)c1ccc(O)cc1
64 | 0 µmol/h | O=C1C(O)=C(O)C(=O)C(O)=C1O
65 | 0.000715 µmol/h | N#Cc1cc(N)cc(Cl)c1
66 | 0 µmol/h | c1cc2ccc3ccc4ccc5ccc6ccc1c1c2c3c4c5c61
67 | 1.37 µmol/h | COc1cc(C=O)c(OC)cc1C=O
68 | 0 µmol/h | Brc1ccc(Br)c2nonc12
69 | 0.177 µmol/h | O=Cc1c(F)c(F)c(C=O)c(F)c1F
70 | 0 µmol/h | N#Cc1cccc(C#N)n1
71 | 2.76 µmol/h | COc1ccc(B(O)O)cc1C=O
72 | 0 µmol/h | CC(Oc1ccc(Br)cc1Br)C(=O)NN (centres undefined)
73 | 1.44 µmol/h | N#Cc1c(Cl)c(Cl)c(C#N)c(Cl)c1Cl

Row | Structure (SMILES) | photocatalytic hydrogen evolution rate
74 | N#CCc1cccc(CC#N)c1 | 0 µmol/h
75 | Nc1ccccc1C(=O)O | 0.00138 µmol/h
76 | O=C1C=C(Br)C(=O)C=C1Br | 0 µmol/h
77 | O=S1(=O)c2ccccc2-c2ccccc21 | 0.222 µmol/h
78 | c1ccc(Nc2ccc(Nc3ccccc3)cc2)cc1 | 0 µmol/h
79 | c1ccc(N=Nc2ccccc2)cc1 | 0 µmol/h
